# Target: T1, Human complement C1s enzyme (Homo sapiens, UniProt P09871)
# T1 construct: purified from human serum, Complement Technology, Inc; purchased Complement Technology, Inc; host or cells: human serum (plasma-derived natural protein)
# T1 sequence (P09871 438-688 limits assumed): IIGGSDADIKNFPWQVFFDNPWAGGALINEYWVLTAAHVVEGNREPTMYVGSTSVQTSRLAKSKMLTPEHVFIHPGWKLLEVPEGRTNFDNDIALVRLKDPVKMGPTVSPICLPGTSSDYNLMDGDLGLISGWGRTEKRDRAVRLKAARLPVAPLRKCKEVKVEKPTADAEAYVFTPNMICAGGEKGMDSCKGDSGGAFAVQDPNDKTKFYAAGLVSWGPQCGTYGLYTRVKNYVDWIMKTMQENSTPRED
# T1 sequence (P09871 16-437 partner limits assumed): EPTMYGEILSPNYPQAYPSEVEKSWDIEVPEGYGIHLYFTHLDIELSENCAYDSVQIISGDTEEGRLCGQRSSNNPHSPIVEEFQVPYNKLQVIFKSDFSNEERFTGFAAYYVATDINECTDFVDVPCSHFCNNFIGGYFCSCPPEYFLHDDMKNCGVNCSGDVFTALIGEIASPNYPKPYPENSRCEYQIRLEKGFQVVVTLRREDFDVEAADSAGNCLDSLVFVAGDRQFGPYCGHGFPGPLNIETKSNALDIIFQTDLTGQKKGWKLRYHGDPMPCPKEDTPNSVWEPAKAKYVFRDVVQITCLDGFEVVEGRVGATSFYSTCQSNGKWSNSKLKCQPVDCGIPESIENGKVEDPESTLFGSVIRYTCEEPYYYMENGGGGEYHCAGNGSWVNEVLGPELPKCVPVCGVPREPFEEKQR
# Test: Human C1s Enzyme Assay
# Format: biochemical
# Conditions: Table 2; C1s purified from human serum, 1.16 nM; substrate Z-L-Lys-SBzl; read-out: C1s Protease Activity
# How it was run: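 Serum-purified human C1s (1.16 nM) preincubated 5 min at RT with compound in 50 mM Tris, 1 M NaCl, pH 7.5. Z-L-Lys-SBzl and DTNB (100 μM each) then added; A405 followed every 30 s for 30 min. IC50 from nonlinear regression of reaction rates versus compound concentration.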
row,Structure (SMILES),IC50 [µM]
1,"N=C(N)c1csc(CNC(=O)[C@@H]2CCCN2C(=O)CNC(=O)CCCCCc2ccccc2)c1 [Compound 81, (S)-N-((4-carbamimidoylthiophen-2-yl)methyl)-1-((6-phenylhexanoyl)glycyl)pyrrolidine-2-carboxamide]",< 0.1
2,"CCCCCC(=O)NCC(=O)N1CCC[C@H]1C(=O)NCc1cc(C(=N)N)cs1 [Compound 82, (S)-N-((4-carbamimidoylthiophen-2-yl)methyl)-1-(hexanoylglycyl)pyrrolidine-2-carboxamide]",0.1 to 1
3,"CCCCCCC(=O)NCC(=O)N1CCC[C@H]1C(=O)NCc1cc(C(=N)N)cs1 [Compound 83, (S)-N-((4-carbamimidoylthiophen-2-yl)methyl)-1-(heptanoylglycyl)pyrrolidine-2-carboxamide]",0.1 to 1
4,"CCCCCCCC(=O)NCC(=O)N1CCC[C@H]1C(=O)NCc1cc(C(=N)N)cs1 [Compound 84, (S)-N-((4-carbamimidoylthiophen-2-yl)methyl)-1-(octanoylglycyl)pyrrolidine-2-carboxamide]",< 0.1
5,"CCCCCCCCC(=O)NCC(=O)N1CCC[C@H]1C(=O)NCc1cc(C(=N)N)cs1 [Compound 85, (S)-N-((4-carbamimidoylthiophen-2-yl)methyl)-1-(nonanoylglycyl)pyrrolidine-2-carboxamide]",< 0.1
6,"CCCCCCCCCC(=O)NCC(=O)N1CCC[C@H]1C(=O)NCc1cc(C(=N)N)cs1 [Compound 86, (S)-N-((4-carbamimidoylthiophen-2-yl)methyl)-1-(decanoylglycyl)pyrrolidine-2-carboxamide]",< 0.1
7,"C[C@H](OCc1ccccc1)[C@H](OCc1ccccc1)[C@@H](OCc1ccccc1)[C@H](CN(CC(=O)N1CC2(C[C@H]1C(=O)NCc1cc(C(=N)N)cs1)OCCO2)C(=O)OCc1ccccc1)OCc1ccccc1 [Compound 87, benzyl (2-((S)-8-(((4-carbamimidoylthiophen-2-yl)methyl)carbamoyl)-1,4-dioxa-7-azaspiro[4.4]nonan-7-yl)-2-oxoethyl)((2S,3S,4S,5S)-2,3,4,5-tetrakis(benzyloxy)hexyl)carbamate]",> 1
8,"C[C@H](OCc1ccccc1)[C@H](OCc1ccccc1)[C@@H](OCc1ccccc1)[C@H](CN(CC(=O)N1CC2(C[C@H]1C(=O)NCc1nc(C(=N)N)cs1)OCCO2)C(=O)OCc1ccccc1)OCc1ccccc1 [Compound 89, benzyl (2-((S)-8-(((4-carbamimidoylthiazol-2-yl)methyl)carbamoyl)-1,4-dioxa-7-azaspiro[4.4]nonan-7-yl)-2-oxoethyl)((2S,3S,4S,5S)-2,3,4,5-tetrakis(benzyloxy)hexyl)carbamate]",> 1

# Same assay, conditions: Table 3; C1s purified from human serum, 1.16 nM; substrate Z-L-Lys-SBzl; read-out: C1s Protease Activity
row,Structure (SMILES),IC50 [µM]
1,"N=C(N)c1csc(NC(=O)[C@@H]2CC3(CN2C(=O)CNC(=O)c2ccc(Oc4ccccc4)cc2)OCCO3)c1 [Compound 91, (S)-N-(4-carbamimidoylthiophen-2-yl)-7-((4-phenoxybenzoyl)glycyl)-1,4-dioxa-7-azaspiro[4.4]nonane-8-carboxamide]",> 1
2,"N=C(N)c1ccc(CNC(=O)[C@@H]2CC3(CN2C(=O)CNC(=O)c2ccc(Oc4ccccc4)cc2)OCCO3)s1 [Compound 92, (S)-N-((5-carbamimidoylthiophen-2-yl)methyl)-7-((4-phenoxybenzoyl)glycyl)-1,4-dioxa-7-azaspiro[4.4]nonane-8-carboxamide]",< 0.1
3,"C[C@@]12C[C@@H]1N(C(=O)CNC(=O)c1ccc(Oc3ccccc3)cc1)[C@H](C(=O)NCc1cc(C#N)cs1)C2 [Compound 93, (1S,3S,5S)-N-((4-cyanothiophen-2-yl)methyl)-5-methyl-2-((4-phenoxybenzoyl)glycyl)-2-azabicyclo[3.1.0]hexane-3-carboxamide]",> 1
4,"C[C@@]12C[C@@H]1N(C(=O)CNC(=O)c1ccc(Oc3ccccc3)cc1)[C@H](C(=O)NCc1cc(/C(N)=N/O)cs1)C2 [Compound 94, (1S,3S,5S)-N-((4-((Z)-N′-hydroxycarbamimidoyl)thiophen-2-yl)methyl)-5-methyl-2-((4-phenoxybenzoyl)glycyl)-2-azabicyclo[3.1.0]heptane-3-carboxamide]",> 1

# Reference: patent US12479856B2, “Pharmaceutical compounds for the treatment of complement mediated disorders” (Achillion Pharmaceuticals, Inc., priority 2019, dated 2025)
